The source of these data is US20230117034A1, “PYRAZOLOTRIAZINES” (Bayer Aktiengesellschaft, priority 2019, published 2023).

In test [1] the test system is MDA-MB-231, human breast cancer cells. Nature of the test: Proliferation assay MDA-MB-231 (crystal violet, 4 days). In kind it is cell-based. As to conditions: Homo sapiens, MDA-MB-231, 96 h, MDA-MB-231 cells, median, read-out: Prolif-MDA MB-231, IC50-[mol/l] (median). A digest of the protocol: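 IC50 from a 4-parameter fit of crystal violet absorbance (595 nm), scaled between the day-of-dosing plate (0%) and vehicle cells (100%). MDA-MB-231 or CAL-120 cells were treated for 4 days with 0.01–10 micromol/L compound in 0.1% DMSO after 24 h attachment.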

Test [2] deals with BRCA1 mRNA expression in MDA-MB-231 cells. Nature of the test: qRT-PCR assay: BRCA1 mRNA expression in MDA-MB-231. In kind it is cell-based, human. As to conditions: Homo sapiens, MDA-MB-231, Inhibition of BRCA1 mRNA expression in MDA-MB-231 cells; median; read-out: RTqPCR-MDA-MB-231, IC50, BRCA1 (median). A digest of the protocol: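 BRCA1 transcript by RT-qPCR relative to GAPDH, from 600 ng RNA converted to cDNA. MDA-MB-231 cells plated at 200,000/well received test compound continuously for 24 h, starting 24 h post-seeding.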
Background: In qPCR the cycle at which signal appears reflects the starting amount.

A further test addresses T1, CDK2/CycE (Homo sapiens, UniProt P24941).
T1 construct: purchased ProQinase GmbH (Freiburg, Germany); host or cells: insect cells (Sf9)
Nature of the test: CDK2/CycE kinase assay (TR-FRET, 2 mM ATP). In kind it is biochemical. As to conditions: 2 mM ATP (high ATP); median; read-out: CDK2/CyclinE, 2 mM ATP (high ATP), IC50 (median). Summed up:
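Biotin-peptide phosphorylation (0.75 µM substrate, 2 mM ATP final, 25 min, 22 °C) by Sf9-expressed GST-CDK2/GST-CycE, after a 15-min compound pre-binding step. Inhibition scaled between enzyme-free (100%) and uninhibited (0%) wells.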

`Fc1cccc2[nH]c(CNc3nc(N4C[C@@H]5C[C@H]4CO5)nc4c(C5CC5)cnn34)nc12` [Example 183, 8-cyclopropyl-N-[(4-fluoro-1H-benzimidazol-2-yl)methyl]-2-[(1S,4S)-2-oxa-5-azabicyclo[2.2.1]heptan-5-yl]pyrazolo[1,5-a][1,3,5]triazin-4-amine]: the IC50 in test [1] was 56 nM; in test [2] it was 4.17 nM; on CDK2/CycE, above 20000 nM.
In the same order, the values of `Cc1ccc2[nH]c(CNc3nc(N4C[C@H]5C[C@@H]4CO5)nc4c(C5CC5)cnn34)nc2c1` [Example 196, 8-cyclopropyl-N-[(5-methyl-1H-benzimidazol-2-yl)methyl]-2-[(1R,4R)-2-oxa-5-azabicyclo[2.2.1]heptan-5-yl]pyrazolo[1,5-a][1,3,5]triazin-4-amine] are 12.9 nM, 4.27 nM and above 19800 nM.
Regarding `Cc1ccc2[nH]c(CNc3nc(N4C[C@@H]5CCCN[C@@H]5C4)nc4c(C5CC5)cnn34)nc2c1` [Example 195, 8-cyclopropyl-N-[(5-methyl-1H-benzimidazol-2-yl)methyl]-2-[(4aS,7aS)-octahydro-6H-pyrrolo[3,4-b]pyridin-6-yl]pyrazolo[1,5-a][1,3,5]triazin-4-amine], the IC50 in test [1] is 4.8 nM; in test [2], 2.83 nM; at CDK2/CycE, above 20000 nM.
Regarding `Fc1ccc2[nH]c(CNc3nc(N4CCNCC4)nc4c(C5CC5)cnn34)nc2c1` [Example 190, 8-cyclopropyl-N-[(5-fluoro-1H-benzimidazol-2-yl)methyl]-2-(piperazin-1-yl)pyrazolo[1,5-a][1,3,5]triazin-4-amine], the IC50 is 4.01 nM in test [1], 3.27 nM in test [2] and above 20000 nM on CDK2/CycE.
In the same order, the values of `O=C1CN(c2nc(NCc3nc4ccccc4[nH]3)n3ncc(Br)c3n2)CCN1` [Example 167, 4-(4-{[(1H-benzimidazol-2-yl)methyl]amino}-8-bromopyrazolo[1,5-a][1,3,5]triazin-2-yl)piperazin-2-one] are 707 nM, 429 nM and 15900 nM.
With `COc1cccc2[nH]c(CNc3nc(N4CCNCC4)nc4c(C5CC5)cnn34)nc12` [Example 211, 8-cyclopropyl-N-[(4-methoxy-1H-benzimidazol-2-yl)methyl]-2-(piperazin-1-yl)pyrazolo[1,5-a][1,3,5]triazin-4-amine], the IC50 in test [1] came out at 7.03 nM; in test [2], 4.24 nM; at CDK2/CycE, 8560 nM.
In the same order, the values of `Fc1ccc2[nH]c(CNc3nc(N4C[C@@H]5CCCN[C@@H]5C4)nc4c(C5CC5)cnn34)nc2c1` [Example 180, 8-cyclopropyl-N-[(5-fluoro-1H-benzimidazol-2-yl)methyl]-2-[(4aS, 7aS)-octahydro-6H-pyrrolo[3,4-b]pyridin-6-yl]pyrazolo[1,5-a][1,3,5]triazin-4-amine] are 13.9 nM, 12 nM and above 20000 nM.
In the same order, the values of `CN1CCN(c2nc(NCc3nc4ccccc4[nH]3)n3ncc(Br)c3n2)CC1` [Example 18, N-[(1H-benzimidazol-2-yl)methyl]-8-bromo-2-(4-methylpiperazin-1-yl)pyrazolo[1,5-a][1,3,5]triazin-4-amine] are 31 nM, 11.4 nM and 6290 nM.
Taken in the same sequence, the figures for `Fc1ccc2[nH]c(CNc3nc(N4CCOCC4)nc4c(C5CC5)cnn34)nc2c1` [Example 181, 8-cyclopropyl-N-[(5-fluoro-1H-benzimidazol-2-yl)methyl]-2-(morpholin-4-yl)pyrazolo[1,5-a][1,3,5]triazin-4-amine] were 9.29 nM, 3.51 nM and above 20000 nM.
On to `CC(C)c1cnn2c(NCc3nc4ccccc4[nH]3)nc(Nc3ccncc3)nc12` [Example 14, N^4-[(1H-benzimidazol-2-yl)methyl]-8-(propan-2-yl)-N^2-(pyridin-4-yl)pyrazolo[1,5-a][1,3,5]triazine-2,4-diamine], for which the IC50 in test [1] is 47 nM; in test [2], below 30 nM; at CDK2/CycE, above 20000 nM.
Taken in the same sequence, the figures for `Cc1ccc2[nH]c(CNc3nc(N4CCNCC4)nc4c(Br)cnn34)nc2c1` [Example 204, 8-bromo-N-[(5-methyl-1H-benzimidazol-2-yl)methyl]-2-(piperazin-1-yl)pyrazolo[1,5-a][1,3,5]triazin-4-amine] were 1.59 nM, 1.13 nM and 10900 nM.
In the same order, the values of `C[C@H]1CN(c2nc(NCc3nc4ccccc4[nH]3)n3ncc(Br)c3n2)CCN1` [Example 169, N-[(1H-benzimidazol-2-yl)methyl]-8-bromo-2-[(3S)-3-methylpiperazin-1-yl]pyrazolo[1,5-a][1,3,5]triazin-4-amine] are 20.7 nM, 3.32 nM and 13300 nM.
Taken in the same sequence, the figures for `CC1(C)CN(c2nc(NCc3nc4ccccc4[nH]3)n3ncc(Br)c3n2)CCN1` [Example 216, N-[(1H-benzimidazol-2-yl)methyl]-8-bromo-2-(3,3-dimethylpiperazin-1-yl)pyrazolo[1,5-a][1,3,5]triazin-4-amine] were 16.8 nM, 7.36 nM and 15200 nM.
In the case of `COc1cccc2[nH]c(CNc3nc(N4CCN(C)CC4)nc4c(C5CC5)cnn34)nc12` [Example 197, 8-cyclopropyl-N-[(4-methoxy-1H-benzimidazol-2-yl)methyl]-2-(4-methylpiperazin-1-yl)pyrazolo[1,5-a][1,3,5]triazin-4-amine], the IC50 was found to be 15.6 nM in test [1], 6.27 nM in test [2] and 13400 nM at CDK2/CycE.
Taken in the same sequence, the figures for `C[C@@H]1CN(c2nc(NCc3nc4cc(F)ccc4[nH]3)n3ncc(C4CC4)c3n2)C[C@H](C)N1` [Example 175, 8-cyclopropyl-2-[(3R,5S)-3,5-dimethylpiperazin-1-yl]-N-[(5-fluoro-1H-benzimidazol-2-yl)methyl]pyrazolo[1,5-a][1,3,5]triazin-4-amine] were 3.26 nM, 1.63 nM and above 20000 nM.
Taken in the same sequence, the figures for `Brc1cnn2c(NCc3nc4ccccc4[nH]3)nc(N3CC4CCC(C3)N4)nc12` [Example 232, N-(1H-benzimidazol-2-ylmethyl)-8-bromo-2-(3,8-diazabicyclo[3.2.1]octan-3-yl)pyrazolo[1,5-a][1,3,5]triazin-4-amine] were 17.9 nM, 4.92 nM and 2870 nM.
Taken in the same sequence, the figures for `Clc1cnn2c(NCc3nc4ccccc4[nH]3)nc(N3CCOCC3)nc12` [Example 15, N-[(1H-benzimidazol-2-yl)methyl]-8-chloro-2-(morpholin-4-yl)pyrazolo[1,5-a][1,3,5]triazin-4-amine] were 44.6 nM, 10 nM and 6520 nM.
Regarding `Cc1ccc2[nH]c(CNc3nc(N4C[C@@H](C)N[C@@H](C)C4)nc4c(C5CC5)cnn34)nc2c1` [Example 194, 8-cyclopropyl-2-[(3R,5S)-3,5-dimethylpiperazin-1-yl]-N-[(5-methyl-1H-benzimidazol-2-yl)methyl]pyrazolo[1,5-a][1,3,5]triazin-4-amine], the IC50 in test [1] is 1.69 nM; in test [2] it was 0.829 nM; at CDK2/CycE, above 20000 nM.
